Laboratory results from ChEMBL document CHEMBL1132708, “Synthesis and voltage-clamp studies of methyl 1,4-dihydro-2, 6-dimethyl-5-nitro-4-(benzofurazanyl)pyridine-3-carboxylate racemates and enantiomers and of their benzofuroxanyl analogues” (J Med Chem, 1999).

Columns and labels:
Format in all cases: functional
[1] = molecular target: T1, Voltage-gated L-type calcium channel (Rattus norvegicus, UniProt P22002+Q02485+P27732); assay: Percent increase in current at -20 mV on L-type [Ca2+] channels in rat RIN-m5F at 3 insulinoma cells (n = 8)
[2] = molecular target: T1, Voltage-gated L-type calcium channel; assay: Percent block of total Ba2+ current on L-type [Ca2+] channels in rat RIN-m5F at 3 insulinoma cells (n = 12)
[3] = molecular target: T1, Voltage-gated L-type calcium channel; assay: Percent increase in current at -20 mV on L-type [Ca2+] channels in rat RIN-m5F at 3 insulinoma cells (n = 5)

CO/C(O)=C1\C(C)=NC(C)=C([N+](=O)[O-])C1c1ccc2nonc2c1 (racemic)
Increase [1]: 247%

CO/C(O)=C1\C(C)=NC(C)=C([N+](=O)[O-])C1c1cccc2nonc12 (single isomer, unassigned; (+))
Increase [2]: 164%

CO/C(O)=C1\C(C)=NC(C)=C([N+](=O)[O-])C1c1ccc2nonc2c1 (single isomer, unassigned; (+))
Increase [3]: 224%
